# Source: patent US8546090B2, “SIRT4 activities” (Massachusetts Institute of Technology, priority 2005, dated 2013)
# Experiments:
# [1] = test system: MIN6 cells; experiment: Insulin secretion assay in MIN6 cells (ELISA); type: cell-based, mouse
# Description: FIG. 4. The role of Sirt4 in insulin secretion. FIG. 4A. The levels of Sirt4 were reduced in MIN6 cells infected with virus that contained Sirt4 RNAi sequences compared to cells infected with pSUPER. FIG. 4B. Insulin secretion was measured from control or RNAi MIN6 cells. Cells were pre-incubated with KRB buffer containing 3 mM glucose, then cells were shifted to buffer containing either 3 mM (open bars) or 16.7 mM glucose (filled bars). Insulin in the buffer was measured by ELISA after a 45 min incubation at 37° C. FIG. 4C. Insulin remaining inside cells was measured at the end of the insulin secretion assays by ELISA.
# FIG. 7. Elevated glutamate dehydrogenase activity contributes to increased insulin secretion in Sirt4 RNAi cells. FIG. 7A. MIN6 cells were co-infected with RNAi for Sirt4 and glutamate dehydrogenase, and protein levels were compared to control infections. FIG. 7B. Insulin secretion assays were performed in double-infected or control cells as described previously. FIG. 7C. Insulin secretion assays were performed in control or Sirt4 RNAi treated cells in the presence or absence of BCH, an activator of glutamate dehydrogenase.
# MIN6 cells were plated in the wells of a 12-well plate at least 24-hours before secretion assays. […] Insulin concentration was measured by ELISA (Alpco Diagnostics; Windham, N.H.).
# [2] = test system: bovine recombinant glutamate dehydrogenase; experiment: Glutamate dehydrogenase assay after incubation with Sirt4; type: biochemical
# Description: FIG. 6. Glutamate dehydrogenase inhibition by Sirt4. FIG. 6A. The enzymatic activity of glutamate dehydrogenase ([…]) was measured before (open bars, T=0) after a 60 min incubation (filled bars, T=60) at 37° C. with hSirt4-FLAG (50 ng) or a buffer control in the presence of 1 mM NAD^+. Experiments were replicated 3-5 times. FIG. 6B. Inhibition of glutamate dehydrogenase by Sirt4 requires 1 mM NAD^+. Glutamate dehydrogenase (50 mg) was incubated with Sirt4 at 37° C. in the presence (pink) or absence (blue) of 1 mM NAD^+. Aliquots (1 ml) were removed at T=0, 5, 15, 30, 60, or 120 min, and glutamate dehydrogenase activity was measured for each time point. FIG. 6C. The activity of glutamate dehydrogenase was measure in mitochondrial lysates (30 mg) from control or Sirt4 RNAi cells. Experiments were performed 3-5 times using cell lines from two separate infections.
# Glutamate dehydrogenase (50 μg; Ultrapure from Sigma) was incubated with or without Sirt4 (10 ng) in […] of ADP-ribosylation buffer (50 mM Tris pH 8.0, 10 mM DTT, 150 mM NaCl) in the presence or absence of 1 mM NAD or 1 mM nicotinamide at 37° C. for the indicated times. Then, an aliquot of the reaction was assayed for glutamate dehydrogenase activity. Activity assays were performed at 25° C. using a BioSpec-1601 spectrophotometer (Shimadzu Scientific Instruments, Inc; Braintree, Mass.) at A340 based on the oxidation of NADH as described previously. Data was collected for 5-10 min. at 10 sec. intervals. At the end of each experiment, less than 10% of substrates had been depleted.
# Sirt4 or a buffer control was incubated with bovine recombinant glutamate dehydrogenase for one hour in the presence of NAD. Then, the glutamate dehydrogenase activity was assessed by monitoring the disappearance of NADH (A340). […] To verify that this inhibition was dependent on the availability of NAD^+, we incubated Sirt4 with or without NAD^+ with glutamate dehydrogenase for various times. […]
inhibition of glutamate dehydrogenase activity ([2]; after incubating for 12 hours),"inhibition of glutamate dehydrogenase activity ([2]; within 2 hours, in the presence of NAD+) [%]",Compound,insulin secretion with BCH and 16.7 mM glucose compared to 16.7 mM glucose alone ([1]; Sirt4 RNAi treated MIN6 cells),insulin secretion with BCH and 16.7 mM glucose compared to 16.7 mM glucose alone ([1]; control MIN6 cells),"enzymatic activity of glutamate dehydrogenase ([2]; incubated one hour in the presence of NAD, versus buffer control)"
,,NC1(C(=O)O)CC2CCC1C2 (centres unmarked) [BCH],did not secrete more insulin,enhanced insulin secretion,
more than 90%,50,"Sirt4: human Sirt4 with C-terminal FLAG, immunoprecipitated from 293T cells; ADP-ribosyltransferase",,,significantly reduced
